# Test results from ChEMBL document CHEMBL1128866, “Isophthalic acid derivatives: amino acid surrogates for the inhibition of HIV-1 protease” (Bioorg Med Chem Lett, 1995).
# What was measured:
# CCRF-CEM = assay: Antiviral activity in HIV-infected CEM cells using whole cell assay; type: functional, cell-based; conditions: Homo sapiens
# [1] = molecular target: Human immunodeficiency virus type 1 protease (Human immunodeficiency virus 1, UniProt Q72874); assay: Inhibitory activity against human immunodeficiency virus protease (HIVP) using protease inhibition assay
# [2] = Peak oral plasma concentration was determined in rats by oral administration; type: ADME, organism-based; set-up: route oral; conditions: rat
Compound,IC50 (CCRF-CEM) [µM],IC50 [1] [µM],Cmax [2] [nM]
CC(C)(C)NC(=O)[C@@H]1C[C@@H]2CCCC[C@@H]2CN1C[C@@H](O)[C@H](Cc1ccccc1)NC(=O)[C@H](CC(N)=O)NC(=O)c1ccc2ccccc2n1,0.002,–,–
CC(C)(C)NC(=O)c1ccccc1C[C@@H](O)[C@H](Cc1ccccc1)NC(=O)c1cccc(C(=O)N2CCc3ccccc3C2)c1,–,0.05,–
Cc1ccc(C(=O)N(C)Cc2ccccn2)cc1C(=O)N[C@@H](Cc1ccccc1)[C@H](O)CN1C[C@H]2CCCC[C@H]2C[C@H]1C(=O)NC(C)(C)C,0.077,0.0086,4400
Cc1cc(C(=O)N[C@@H](Cc2ccccc2)[C@H](O)Cc2ccccc2C(=O)NC(C)(C)C)cc(C(=O)N2CCc3ccccc3C2)c1,–,0.5,–
Cc1ccc(C(=O)N[C@@H](Cc2ccccc2)[C@H](O)Cc2ccccc2C(=O)NC(C)(C)C)cc1C(=O)N1CCc2ccccc2C1,–,0.67,–
CC(C)(C)NC(=O)c1ccccc1C[C@@H](O)[C@H](Cc1ccccc1)NC(=O)[C@H](CC(N)=O)NC(=O)c1ccc2ccccc2n1,0.027,–,< 100
Cc1ccc(C(=O)N2CCc3ccccc3C2)cc1C(=O)N[C@@H](Cc1ccccc1)[C@H](O)Cc1ccccc1C(=O)NC(C)(C)C,–,0.0061,–
Cc1ccc(C(=O)N2CCc3ccccc3C2)cc1C(=O)N[C@@H](Cc1ccccc1)[C@H](O)CN1C[C@H]2CCCC[C@H]2C[C@H]1C(=O)NC(C)(C)C,1.4,0.0138,< 100
